# Results: US9815846B2 (Merck Sharp & Dohme Corp., priority 2014, dated 2017)
# Biological target: human TrkA receptor (Homo sapiens (Human), UniProt P04629)
# Assay: DiscoverX PathHunter TrkA functional assay (NGF-stimulated U2OS cells)
# Assay type: cell-based
# Conditions: U2OS cells expressing human TrkA-PK, Shc1-EA and p75NTR; compound 1 h, then NGF at ~80% of maximal response for 3 h; luminescence
# Chain of human TrkA receptor (P04629 33-796): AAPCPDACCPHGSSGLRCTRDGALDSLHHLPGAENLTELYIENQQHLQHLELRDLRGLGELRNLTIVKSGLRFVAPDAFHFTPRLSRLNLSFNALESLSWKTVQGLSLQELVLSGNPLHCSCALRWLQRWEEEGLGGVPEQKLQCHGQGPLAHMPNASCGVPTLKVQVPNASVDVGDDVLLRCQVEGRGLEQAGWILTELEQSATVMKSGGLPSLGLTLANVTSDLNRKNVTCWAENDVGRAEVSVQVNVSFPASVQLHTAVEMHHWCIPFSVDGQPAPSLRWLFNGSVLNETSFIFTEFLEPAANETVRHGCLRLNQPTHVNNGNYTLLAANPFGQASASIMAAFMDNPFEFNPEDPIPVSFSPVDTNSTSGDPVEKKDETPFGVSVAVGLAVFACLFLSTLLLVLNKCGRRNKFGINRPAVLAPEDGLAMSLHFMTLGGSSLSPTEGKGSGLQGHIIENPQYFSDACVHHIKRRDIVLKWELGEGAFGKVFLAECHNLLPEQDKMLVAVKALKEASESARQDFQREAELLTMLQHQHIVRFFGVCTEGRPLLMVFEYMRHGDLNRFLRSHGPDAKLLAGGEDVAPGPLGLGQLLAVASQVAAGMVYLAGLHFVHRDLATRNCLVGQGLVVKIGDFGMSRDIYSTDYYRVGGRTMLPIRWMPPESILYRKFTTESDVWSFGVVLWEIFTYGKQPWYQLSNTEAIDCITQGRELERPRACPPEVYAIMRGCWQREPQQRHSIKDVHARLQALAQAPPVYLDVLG
row,SMILES,IC50
1,"Cc1ncc(NC(=O)c2ccc(C(F)(F)F)c(-c3ncco3)c2)c(-c2ccccc2)n1 [Example 20, N-(2-methyl-4-phenylpyrimidin-5-yl)-3-(1,3-oxazol-2-yl)-4-(trifluoromethyl)benzamide]",15 nM
2,"Cc1ncc(NC(=O)c2ccc(C(F)(F)F)c(-c3cc[nH]n3)c2)c(-c2ccccc2)n1 [Example 21, N-(2-methyl-4-phenylpyrimidin-5-yl)-3-(1H-pyrazol-3-yl)-4-(trifluoromethyl)benzamide]",35 nM
3,"Cc1ncc(NC(=O)c2cc(-c3ccn(C)n3)c(C(F)(F)F)cc2Cl)c(-c2ccccc2)n1 [Example 23, 2-chloro-N-(2-methyl-4-phenylpyrimidin-5-yl)-5-(1-methyl-1H-pyrazol-3-yl)-4-(trifluoromethyl)benzamide]",1.1 nM
4,"Cn1ccc(-c2cc(C(=O)Nc3nccnc3-c3ccccc3)ccc2C(F)(F)F)n1 [Example 25, 3-(1-methyl-1H-pyrazol-3-yl)-N-(3-phenylpyrazin-2-yl)-4-(trifluoromethyl)benzamide]",83 nM
5,"Cc1ncc(NC(=O)c2cc(-c3ncccn3)c(C(F)(F)F)cc2F)c(-c2ccccc2)n1 [Example 28, 2-fluoro-N-(2-methyl-4-phenylpyrimidin-5-yl)-5-pyrimidin-2-yl-4-(trifluoromethyl)benzamide]",9.6 nM
6,"Cc1noc(-c2cc(C(=O)Nc3cnc(C)nc3-c3ccccc3)ccc2C(F)(F)F)n1 [Example 30, 3-(3-methyl-1,2,4-oxadiazol-5-yl)-N-(2-methyl-4-phenylpyrimidin-5-yl)-4-(trifluoromethyl)benzamide]",130 nM
7,"Cc1ncc(NC(=O)c2ccc(C(F)(F)F)c(-c3ccn(C)n3)c2)c(-c2ccc(F)cc2)n1 [Example 31, N-[4-(4-fluorophenyl)-2-methylpyrimidin-5-yl]-3-(1-methyl-1H-pyrazol-3-yl)-4-(trifluoromethyl)benzamide]",5.5 nM
8,"Cc1cccc(-c2nc(C)ncc2NC(=O)c2ccc(C(F)(F)F)c(-c3ccn(C)n3)c2)c1 [Example 32, N-[2-methyl-4-(3-methylphenyl)pyrimidin-5-yl]-3-(1-methyl-1H-pyrazol-3-yl)-4-(trifluoromethyl)benzamide]",8.3 nM
9,"Cn1ccc(-c2cc(C(=O)Nc3cnc(CC#N)nc3-c3ccccc3)c(F)cc2C(F)(F)F)n1 [Example 34, N-(2-(cyanomethyl)-4-phenylpyrimidin-5-yl)-2-fluoro-5-(1-methyl-1H-pyrazol-3-yl)-4-(trifluoromethyl)benzamide]",0.69 nM
10,"Cn1ccc(-c2cc(C(=O)Nc3cnc(CCO)nc3-c3ccccc3)ccc2C(F)(F)F)n1 [Example 37, N-(2-(2-hydroxyethyl)-4-phenylpyrimidin-5-yl)-3-(1-methyl-1H-pyrazol-3-yl)-4-(trifluoromethyl)benzamide]",4 nM
11,"Cn1ccc(-c2cc(C(=O)Nc3cnc(CCN4CCOCC4)nc3-c3ccccc3)ccc2C(F)(F)F)n1 [Example 38, 3-(1-methyl-1H-pyrazol-3-yl)-N-(2-(2-morpholinoethyl)-4-phenylpyrimidin-5-yl)-4-(trifluoromethyl)benzamide]",25 nM
12,"Cn1ccc(-c2cc(C(=O)Nc3cnc(CNC(=O)OC(C)(C)C)nc3-c3ccccc3)ccc2C(F)(F)F)n1 [Example 41, t-Butyl ((5-(3-(1-methyl-1H-pyrazol-3-yl)-4-(trifluoromethyl)benzamido)-4-phenylpyrimidin-2-yl)methyl)carbamate]",5 nM
13,"Cn1ccc(-c2cc(C(=O)Nc3cnc(CN)nc3-c3ccccc3)ccc2C(F)(F)F)n1 [Example 42, N-(2-(Aminomethyl)-4-phenylpyrimidin-5-yl)-3-(1-methyl-1H-pyrazol-3-yl)-4-(trifluoromethyl)benzamide]",21 nM
14,CNCc1ncc(NC(=O)c2ccc(C(F)(F)F)c(-c3ccn(C)n3)c2)c(-c2ccccc2)n1 [Example 45],16 nM
15,"Cc1nc(CO)c(NC(=O)c2ccc(C(F)(F)F)c(-c3ccn(C)n3)c2)c(-c2ccccc2)n1 [Example 46, N-(4-(Hydroxymethyl)-2-methyl-6-phenylpyrimidin-5-yl)-3-(1-methyl-1H-pyrazol-3-yl)-4-(trifluoromethyl)benzamide]",24 nM
16,"CC(=O)NCc1ncc(NC(=O)c2ccc(C(F)(F)F)c(-c3ccn(C)n3)c2)c(-c2ccccc2)n1 [Example 49, N-(2-(acetamidomethyl)-4-phenylpyrimidin-5-yl)-3-(1-methyl-1H-pyrazol-3-yl)-4-(trifluoromethyl)benzamide]",3.6 nM
17,"Cn1ccc(-c2cc(C(=O)Nc3cnc(CNC(=O)CO)nc3-c3ccccc3)c(F)cc2C(F)(F)F)n1 [Example 52, 2-fluoro-N-(2-((2-hydroxyacetamido)methyl)-4-phenylpyrimidin-5-yl)-5-(1-methyl-1H-pyrazol-3-yl)-4-(trifluoromethyl)benzamide]",1.6 nM
18,"Cn1ccc(-c2cc(C(=O)Nc3ccc(CNC(=O)CO)nc3-c3ccccc3)ccc2C(F)(F)F)n1 [Example 53, N-(6-((2-hydroxyacetamido)methyl)-2-phenylpyridin-3-yl)-3-(1-methyl-1H-pyrazol-3-yl)-4-(trifluoromethyl)benzamide]",5.7 nM
19,"Cn1ccc(-c2cc(C(=O)Nc3ccc(CNC(=O)[C@@H]4CCC(=O)N4)nc3-c3ccccc3)c(F)cc2C(F)(F)F)n1 [Example 57, (S)-N-((5-(2-fluoro-5-(1-methyl-1H-pyrazol-3-yl)-4-(trifluoromethyl)benzamido)-6-phenylpyridin-2-yl)methyl)-5-oxopyrrolidine-2-carboxamide]",1.1 nM

# Results, then the compound that gave them:
row,IC50,SMILES
1,64 nM,"Cn1ccc(-c2cc(C(=O)Nc3ncccc3-c3ccccc3)ccc2C(F)(F)F)n1 [Example 22, 3-(1-methyl-1H-pyrazol-3-yl)-N-(3-phenylpyridin-2-yl)-4-(trifluoromethyl)benzamide]"
2,210 nM,"Cc1nc(C)c(NC(=O)c2ccc(C(F)(F)F)c(-c3ccn(C)n3)c2)c(-c2ccccc2)n1 [Example 26, N-(2,4-dimethyl-6-phenylpyrimidin-5-yl)-3-(1-methyl-1H-pyrazol-3-yl)-4-(trifluoromethyl)benzamide]"
3,4 nM,"Cc1coc(-c2cc(C(=O)Nc3cnc(C)nc3-c3ccccc3)ccc2C(F)(F)F)n1 [Example 29, 3-(4-methyl-1,3-oxazol-2-yl)-N-(2-methyl-4-phenylpyrimidin-5-yl)-4-(trifluoromethyl)benzamide]"
4,56 nM,"Cc1ncc(NC(=O)c2cc(C3CCC(C)O3)c(C(F)(F)F)cc2F)c(-c2ccccc2)n1 (stereo not drawn) [Example 33, 2-fluoro-N-(2-methyl-4-phenylpyrimidin-5-yl)-5-(5-methyltetrahydrofuran-2-yl)-4-(trifluoromethyl)benzamide]"
5,7.3 nM,"Cn1ccc(-c2cc(C(=O)Nc3cnc(CO)nc3-c3ccccc3)ccc2C(F)(F)F)n1 [Example 35, N-(2-(Hydroxymethyl)-4-phenylpyrimidin-5-yl)-3-(1-methyl-1H-pyrazol-3-yl)-4-(trifluoromethyl)benzamide]"
6,24 nM,"O=C(Nc1cnc(CO)nc1-c1ccccc1)c1ccc(C(F)(F)F)c(-c2cc[nH]n2)c1 [Example 36, N-(2-(hydroxymethyl)-4-phenylpyrimidin-5-yl)-3-(1H-pyrazol-3-yl)-4-(trifluoromethyl)benzamide]"
7,70 nM,"O=C(Nc1cnc(CO)nc1-c1ccccc1)c1ccc(C(F)(F)F)c(-c2ncccn2)c1 [Example 39, N-(2-(Hydroxymethyl)-4-phenylpyrimidin-5-yl)-3-(pyrimidin-2-yl)-4-(trifluoromethyl)benzamide]"
8,12 nM,"O=C(Nc1cnc(CO)nc1-c1ccccc1)c1ccc(C(F)(F)F)c(-c2cc[nH]n2)c1 [Example 40, N-(2-(hydroxymethyl)-4-phenylpyrimidin-5-yl)-3-(1H-pyrazol-3-yl)-4-(trifluoromethyl)benzamide]"
9,55 nM,NCc1ncc(NC(=O)c2ccc(C(F)(F)F)c(-c3ccn(C(F)F)n3)c2)c(-c2ccccc2)n1 [Example 43]
10,20 nM,"Cc1ncc(NC(=O)c2ccc(C(F)(F)F)c(-c3ccn(C)n3)c2)c(-c2cccc(CO)c2)n1 [Example 44, N-(4-(3-(Hydroxymethyl)phenyl)-2-methylpyrimidin-5-yl)-3-(1-methyl-1H-pyrazol-3-yl)-4-(trifluoromethyl)benzamide]"
11,1.3 nM,"Cn1ccc(-c2cc(C(=O)Nc3ccc(C(C)(C)O)nc3-c3ccccc3)ccc2C(F)(F)F)n1 [Example 47, N-(6-(2-hydroxypropan-2-yl)-2-phenylpyridin-3-yl)-3-(1-methyl-1H-pyrazol-3-yl)-4-(trifluoromethyl)benzamide]"
12,1.1 nM,C[C@H](O)C(=O)NCc1ncc(NC(=O)c2cc(-c3ccn(C)n3)c(C(F)(F)F)cc2F)c(-c2ccccc2)n1 [Example 48]
13,3.6 nM,"Cn1ccc(-c2cc(C(=O)Nc3cnc(CNC(=O)CO)nc3-c3ccccc3)ccc2C(F)(F)F)n1 [Example 50, N-(2-((2-hydroxyacetamido)methyl)-4-phenylpyrimidin-5-yl)-3-(1-methyl-1H-pyrazol-3-yl)-4-(trifluoromethyl)benzamide]"
14,4.9 nM,"Cn1ccc(-c2cc(C(=O)Nc3cnc(CNC(=O)C4CC4)nc3-c3ccccc3)ccc2C(F)(F)F)n1 [Example 51, N-(2-(cyclopropanecarboxamidomethyl)-4-phenylpyrimidin-5-yl)-3-(1-methyl-1H-pyrazol-3-yl)-4-(trifluoromethyl)benzamide]"
15,9.3 nM,"CC(=O)NCc1ncc(NC(=O)c2cc(-c3cc[nH]n3)c(C(F)(F)F)cc2F)c(-c2ccccc2)n1 [Example 54, N-(2-(acetamidomethyl)-4-phenylpyrimidin-5-yl)-2-fluoro-5-(1H-pyrazol-3-yl)-4-(trifluoromethyl)benzamide]"
16,14 nM,"Cn1ccc(-c2cc(C(=O)Nc3cnc(CNC(=O)CO)cc3-c3ccccc3)ccc2C(F)(F)F)n1 [Example 55, N-(6-((2-hydroxyacetamido)methyl)-4-phenylpyridin-3-yl)-3-(1-methyl-1H-pyrazol-3-yl)-4-(trifluoromethyl)benzamide]"
17,0.45 nM,"C[C@H](O)C(=O)NCc1ccc(NC(=O)c2cc(-c3ccn(C)n3)c(C(F)(F)F)cc2F)c(-c2ccccc2)n1 [Example 56, (S)-2-fluoro-N-(6-((2-hydroxypropanamido)methyl)-2-phenylpyridin-3-yl)-5-(1-methyl-1H-pyrazol-3-yl)-4-(trifluoromethyl)benzamide]"
